Results taken from PMC10746543, “Design principles for cyclin K molecular glue degraders” (Nature Chemical Biology, 2023).
Values joined by “and” are separate entries in the source; they are usually repeats but may differ in a detail not shown here. Equal values may be shown once. Read-outs that look alike come from different tables or passages of the source.

Columns and labels:
[1] = target: T1, CDK12–cyclin K and DDB1 (Homo sapiens, UniProt Q16531+Q9NYV4, K965R); assay: TR-FRET ternary complex formation assay (compound titration); assay type: binding
T1 construct: His6–CDK12 (a.a. 713–1,052); full-length or beta-propeller B domain deletion (ΔBPB: a.a. 396–705 deleted) constructs of His6–DDB1ΔBPB, StrepII–Avi–DDB1, or His6–Spy–DDB1; made in house; host or cells: Trichoplusia ni High Five insect cells (baculovirus)
Summary of the method: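 TR-FRET ratio 520/490 nm; 70 μs delay before read to suppress background.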

[2] = target: T1, CDK12–cyclin K and DDB1; assay: TR-FRET Kd determination, quadratic fit, 50 nM or 10 nM CDK12–cyclin K; assay type: binding; details: for Kd: n = 1
Description: Equation (2) is a quadratic binding equation used for Kd determination,where Top and Bottom refer to the curve plateaus. […]

[3] = system: cyclin K–eGFP degradation reporter; assay: Cyclin K reporter stability analysis (dual-color cyclin K–eGFP reporter); assay type: cell-based, human; details: Supplementary Table 2; HEK293T cycK-eGFP reporter, 5 h; read-out: Cellular assays DC50
Summary of the method: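 Cells (HEK293T–Cas9, reporter-expressing) at 1 × 10^6 ml^−1; 5 h compound or DMSO; flow cytometry; gMFI eGFP ÷ mCherry on round mCherry-positive events; normalized to 3 DMSO controls.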

[4] = system: HEK293T cells; assay: Drug sensitivity assay (CellTiter-Glo viability) with or without MLN4924 pretreatment; assay type: cell-based, human; details: for EC50: Homo sapiens, HEK-293T
Summary of the method: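 Luminescent ATP read-out (CellTiter-Glo) after 3 days of drug exposure, normalised to DMSO controls. Cells were HEK293T–Cas9, pretreated with 100 nM MLN4924 or DMSO for 2 h before drug dispensing.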

T1 sequence (Q9NYV4 713-1052 K965R): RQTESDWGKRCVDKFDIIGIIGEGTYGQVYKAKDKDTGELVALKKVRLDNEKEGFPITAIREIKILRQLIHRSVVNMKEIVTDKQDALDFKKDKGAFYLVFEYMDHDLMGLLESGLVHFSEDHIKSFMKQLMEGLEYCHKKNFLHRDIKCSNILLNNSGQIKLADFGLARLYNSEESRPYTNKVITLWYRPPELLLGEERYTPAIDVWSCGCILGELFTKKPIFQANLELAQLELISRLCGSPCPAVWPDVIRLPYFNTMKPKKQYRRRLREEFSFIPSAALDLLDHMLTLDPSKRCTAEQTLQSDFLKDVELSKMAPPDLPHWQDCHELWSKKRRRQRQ
T1 sequence (O75909 1-267 partner): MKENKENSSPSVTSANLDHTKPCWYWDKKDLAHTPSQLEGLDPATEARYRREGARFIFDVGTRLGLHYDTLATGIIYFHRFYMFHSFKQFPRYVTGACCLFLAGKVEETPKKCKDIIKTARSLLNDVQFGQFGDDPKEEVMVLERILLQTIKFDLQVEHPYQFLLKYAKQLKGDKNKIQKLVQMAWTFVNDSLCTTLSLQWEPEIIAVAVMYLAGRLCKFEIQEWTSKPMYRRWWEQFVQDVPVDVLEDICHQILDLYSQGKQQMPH
T1 sequence (Q16531 whole entry): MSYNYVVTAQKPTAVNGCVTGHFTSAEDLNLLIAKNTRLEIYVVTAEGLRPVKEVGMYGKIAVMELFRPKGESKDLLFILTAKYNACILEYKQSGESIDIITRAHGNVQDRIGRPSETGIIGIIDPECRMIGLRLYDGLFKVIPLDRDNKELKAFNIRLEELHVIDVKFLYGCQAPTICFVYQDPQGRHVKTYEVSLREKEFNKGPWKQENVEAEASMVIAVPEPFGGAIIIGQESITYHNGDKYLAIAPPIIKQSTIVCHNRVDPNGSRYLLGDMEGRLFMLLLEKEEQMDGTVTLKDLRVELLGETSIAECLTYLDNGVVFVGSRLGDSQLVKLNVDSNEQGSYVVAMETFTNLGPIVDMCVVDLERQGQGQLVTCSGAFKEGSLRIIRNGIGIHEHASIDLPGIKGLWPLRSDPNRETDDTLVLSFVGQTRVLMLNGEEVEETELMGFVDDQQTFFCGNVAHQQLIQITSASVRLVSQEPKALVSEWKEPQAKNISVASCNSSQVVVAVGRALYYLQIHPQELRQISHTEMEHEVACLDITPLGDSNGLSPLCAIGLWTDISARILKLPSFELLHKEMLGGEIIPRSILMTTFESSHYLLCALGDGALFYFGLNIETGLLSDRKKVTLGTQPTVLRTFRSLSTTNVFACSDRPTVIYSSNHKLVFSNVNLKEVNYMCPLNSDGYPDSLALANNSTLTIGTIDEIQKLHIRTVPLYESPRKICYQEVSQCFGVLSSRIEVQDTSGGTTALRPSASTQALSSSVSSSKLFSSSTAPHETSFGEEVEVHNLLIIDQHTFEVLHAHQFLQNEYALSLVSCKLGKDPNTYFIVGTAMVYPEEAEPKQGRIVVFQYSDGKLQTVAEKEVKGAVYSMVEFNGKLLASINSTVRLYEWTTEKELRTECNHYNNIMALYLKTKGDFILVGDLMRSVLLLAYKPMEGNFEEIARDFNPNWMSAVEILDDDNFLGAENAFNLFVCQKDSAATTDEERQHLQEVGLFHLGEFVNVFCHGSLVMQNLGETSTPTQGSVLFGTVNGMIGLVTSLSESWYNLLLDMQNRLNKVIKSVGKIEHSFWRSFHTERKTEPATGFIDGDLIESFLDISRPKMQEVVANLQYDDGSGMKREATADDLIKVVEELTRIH

CCC(CO)Nc1nc(NCc2ccc(-c3ccccc3)cc2)c2ncn(C(C)C)c2n1 (centres unmarked) [DS16]
TR-FRET signal, individual replicate ([1]; compound concentration 0.468 nM): 0.2708 and 0.2758 and 0.8924 and 0.6371 | TR-FRET signal, individual replicate ([1]; compound concentration 2.16 nM): 0.3875 and 0.4113 and 0.3298 and 0.5644 | TR-FRET signal, individual replicate ([1]; compound concentration 3.6 nM): 0.6563 and 0.6817 and 0.5785 and 0.7591 | TR-FRET signal, individual replicate ([1]; compound concentration 7.92001 nM): 1.219 and 1.2973 and 0.9793 and 1.183 | TR-FRET signal, individual replicate ([1]; compound concentration 15.84 nM): 2.2073 and 2.2521 and 2.043 and 2.171 | TR-FRET signal, individual replicate ([1]; compound concentration 30.96 nM): 3.25 and 3.347 and 3.281 and 3.173 | TR-FRET signal, individual replicate ([1]; compound concentration 62.6401 nM): 3.39 and 3.868 and 3.793 and 3.73 | TR-FRET signal, individual replicate ([1]; compound concentration 125.28 nM): 3.865 and 4.101 and 4.033 and 4.091 | TR-FRET signal, individual replicate ([1]; compound concentration 244.8 nM): 3.936 and 4.169 and 4.142 and 4.064 | TR-FRET signal, individual replicate ([1]; compound concentration 993.601 nM): 4.054 and 4.241 and 4.216 and 4.146 | TR-FRET signal, individual replicate ([1]; compound concentration 2001.6 nM): 3.9849 and 4.219 and 4.148 and 4.067 | DDB1–CDK12 complex formation, result in words ([1]; in vitro TR-FRET): activity equivalent to CR8 | EC50 ([1]; in vitro complex formation, 50 nM CDK12–cyclin K, 100 nM DDB1, text and figures, read-out: TR-FRET EC50): 17 ± 1 nM | EC50 ([1]; sheet MOESM7, read-out: log TR-FRET EC50 (converted)): 16.7 nM | EC50 ([1]; source data sheet correlations, read-out: TR-FRET EC50): 16.7 nM | Kd ([2]; 10 nM CDK12-cyclin K + 100 nM DDB1): 4 ± 1 nM | TR-FRET signal ([2]; 10 nM CDK12-cyclin K, compound 0.468 nM): 0.1087 | TR-FRET signal ([2]; 10 nM CDK12-cyclin K, compound 2.16 nM): 0.1516 | TR-FRET signal ([2]; 10 nM CDK12-cyclin K, compound 3.6 nM): 0.2175 | TR-FRET signal ([2]; 10 nM CDK12-cyclin K, compound 7.92 nM): 0.2964 | TR-FRET signal ([2]; 10 nM CDK12-cyclin K, compound 15.84 nM): 0.3471 | TR-FRET signal ([2]; 10 nM CDK12-cyclin K, compound 30.96 nM): 0.4043 | TR-FRET signal ([2]; 10 nM CDK12-cyclin K, compound 62.6399 nM): 0.4639 | TR-FRET signal ([2]; 10 nM CDK12-cyclin K, compound 125.279 nM): 0.4363 | TR-FRET signal ([2]; 10 nM CDK12-cyclin K, compound 244.8 nM): 0.4586 | TR-FRET signal ([2]; 10 nM CDK12-cyclin K, compound 993.6 nM): 0.4753 | TR-FRET signal ([2]; 10 nM CDK12-cyclin K, compound 2001.6 nM): 0.4769 | Kd ([2]; 50 nM CDK12-cyclin K + 100 nM DDB1): 6 ± 2 nM | TR-FRET signal ([2]; 50 nM CDK12-cyclin K, compound 0.468 nM): 0.2249 | TR-FRET signal ([2]; 50 nM CDK12-cyclin K, compound 2.16 nM): 0.2842 | TR-FRET signal ([2]; 50 nM CDK12-cyclin K, compound 3.6 nM): 0.3938 | TR-FRET signal ([2]; 50 nM CDK12-cyclin K, compound 7.92 nM): 0.6539 | TR-FRET signal ([2]; 50 nM CDK12-cyclin K, compound 15.84 nM): 1.0227 | TR-FRET signal ([2]; 50 nM CDK12-cyclin K, compound 30.96 nM): 1.706 | TR-FRET signal ([2]; 50 nM CDK12-cyclin K, compound 62.6399 nM): 2.089 | TR-FRET signal ([2]; 50 nM CDK12-cyclin K, compound 125.279 nM): 2.303 | TR-FRET signal ([2]; 50 nM CDK12-cyclin K, compound 244.8 nM): 2.498 | TR-FRET signal ([2]; 50 nM CDK12-cyclin K, compound 993.6 nM): 2.704 | TR-FRET signal ([2]; 50 nM CDK12-cyclin K, compound 2001.6 nM): 2.6928 | DC50 [3]: 1030 nM | EC50 ([4]; Supplementary Fig. 5, HEK293T, CellTiter Glo, 72h, pre-treatment with 100 nM MLN4924, read-out: Viability EC50, with MLN4924): 15000 nM | EC50 ([4]; Supplementary Table 2, HEK293T viability, 72 h, compound alone, read-out: Cellular assays EC50): 600 nM | % MLN4924 rescue ([4]; PCA input): 1490% | Toxicity rescue ([4]; Supplementary Table 2, MLN4924-mediated cytotoxicity rescue, 10 µM used where n.d.): 1567%
